Reference: patent publication US5780505A, “Substituted N-arylmethylamino derivatives of cyclobutene-3, 4-diones” (American Home Products Corporation, priority 1997, dated 1998)
Where two headings read alike, the source gives them in different places.

Key:
[1] = tested on: Isolated Rat Bladder Strips; assay: Inhibition of contractions in isolated rat bladder strips (KCl-enhanced contractile activity; smooth muscle relaxation); assay type: cell-based, Sprague-Dawley rats; conditions: for inhibition at 30 µM: read-out: Percent inhibition at 30 μM (I)
From the text: The smooth muscle relaxing activity of the compounds of this invention was established in accordance with standard pharmaceutically accepted test procedures with representative compounds as follows:
Sprague-Dawley rats (150-200 g) are rendered unconscious by CO2 asphyxiation and then euthanized by cervical dislocation. The bladder is removed into warm (37 deg.C) physiological salt solution (PSS) of the following composition (mM): NaCl, 118.4; KCl, 4.7; CaCl2, 2.5; MgSO4, 4.7; H2 O, 1,2; NaHCO3, 24.9; KH2 PO4, 1,2; glucose, 11.1; EDTA, 0.023; gassed with […]; pH 7.4. The bladder is opened and then dut into strips 1-2 mm in width and 7-10 mm in length. The strips are subsequently suspended in a 10 mL tissue bath under an initial resting tension of 1.5 g. The strips are held in place by two surgical clips one of which is attached to a fixed hook while the other is attached to an isometric force transducer. […] The carbachol is then washed out and the tissue allowed to relax to its resting level of activity. Following a further 30 min period of recovery an additional 15 mM KCl are introduced into the tissue bath. This increase in KCl concentration results in a large increase in the amplitude of spontaneous contractions (and initiation of contractions in previously quiescent strips) superimposed upon a small increase in basal tone. Following stabilization of this enhanced level of contractile activity, incremental increases in the concentration of test compound or vehicle are introduced into the tissue bath. Contractile activity is measured for each compound or vehicle concentration during the last minute of a 30 minute challenge.
The isometric force developed by the bladder strips is measured using a […] to elicit 50% inhibition of pre-drug contractile activity (IC50 concentration) and is calculated from this concentration-response curve.

[2] = tested on: hypertrophied bladder (detrussor) smooth muscle; assay: Inhibition of spontaneous contractions in vivo (conscious female rats with hypertrophied bladders, cystometry); set-up: species or system Female Sprague-Dawley rats; conditions: hypertrophied rat bladder model
From the text: In addition, we tested the ability of compounds to inhibit the hyperactivity of hypertrophied bladder (detrussor) smooth muscle in conscious female rats with hypertrophied bladders and thereby alleviate urinary incontinence in rats according to the following protocol described by Malmgren (A. Malmgren, K. E. Andersson, C. Sjogren, P. O. Andersson, Effects of pinacidil and Cromakalim (BRL 34915) on Bladder Function in Rats with Detrusor Instability, J. Urol. 142: 1134, 1989.):
Female Sprague-Dawley rats, ranging in weight from 190-210 g are used. Up to 25 animals are prepared each time. After developemnt of bladder hypertrophy 4-8 animals are used per test.
Compounds are dissolved in PEG-200 and administered by gastric gavage or intraveneously in a volume of 5 ml/kg. For primary screening all drugs are administered at the arbitrary dose of 10 mg/kg p.o. to groups of 4 rats.
The animals are anesthetized with halothane. Through a midline incision the bladder and urethra are exposed and a ligature of 4-0 silk is tied around the proximal urethra in the presence of a stainless steel rod (1 mm diameter) to produce a partial occlusion. The rod is then removed. The abdominal region is closed using surgical staples and each rat receives 150,000 units of bicillin C-R. The animals ar allowed six weeks to develop sufficient bladder hypertrophy. After six weeks, the ligature is removed under halothane anesthesia and a catheter (PE 60) with a cuff is placed in the dome of the bladder and secured with a purse string suture. The catheter is tunneled under the skin and exteriorized through an opening in the back of the neck. The abdominal incision is sutured and the free end of the catheter sealed. In order to prevent infections the rats receive an injection of bicillin C-R (150000 units/rat). Two days later the animals are used in cystometrical evaluations, The animals are placed in the metabolic cages and the catheter is attached (using a "T" connector) to a Statham pressure transducer (Model P23Db) and to a Harvard infusion pump. A plastic beaker attached to a force displacement transducer (Grass FTO3) is placed under the rat's cage to collect and record urine volume. Animals are allowed 15-30 min t rest before the saline infusion (20 ml/hr for 20 minutes) is started for the first cystometry period. Two hours after the first cystometry period, the rats are dosed with the vehicle or the test compound and one hour later a second cystometry is performed.
The following urodynamic variables are recorded:
Basal bladder pressure=the lowest bladder pressure during cystometry
Threshold pressure=bladder pressure immediately prior to micturition
Micturition volume=volume expelled
Micturition pressure=peak pressure during voiding
Spontaneous activity=mean amplitude of bladder pressure fluctuations during filling
Presentation of results: The mean value of each variable is calculated before and after compound administration. For each compound the changes in the variables measured are compared to the values obtained before treatment and expressed as percent inhibition. The data are also subjected to 2-way analysis of variance to determine significant (p<0.05) changes in the variable measured.
Criteria for Activity: The most characteristic finding in this rat model is spontaneous bladder contractions which develop during filling. The compounds which inhibit spontaneous contractions by at least 50% at 10 mg/kg p.o. or i.v. (arbitrary chosen dose) are considered active.

[3] = 0.5 h, isolated rat bladder strips, 15 mM additional KCl, 30 minute challenge, read-out: IC50 (50% inhibition of pre-drug contractile activity)

**Q.** Which results are given for `CC(C)(C)Nc1c(NCc2ccc(C#N)cc2Cl)c(=O)c1=O` [Example 2, 4-[(2-tert-Butylamino-3,4-dioxo-cyclobut-1-enylamino)-methyl]-3-chloro-benzonitrile]?
**A.** IC50 [1, 3]: 140 ± 20 nM; IC50 ([1]; Rattus norvegicus, prior lot (mp 234-236° C., softens 225° C.), n = 4, read-out: IC50 of a prior lot): 570 ± 340 nM; % Red (F): percent reduction in the total number of spontaneous contractions ([2]; 1 mg/kg p.o., prior lot of this compound (mp 234-236° C.)): -34 ± 11%; % Red (F): percent reduction in the total number of spontaneous contractions ([2]; 3 mg/kg p.o., prior lot of this compound (mp 234-236° C.)): -49 ± 8%; % Red (F): percent reduction in the total number of spontaneous contractions ([2]; 10 mg/kg p.o., prior lot of this compound (mp 234-236° C.)): -93 ± 3%

**Q.** For `CC(Nc1c(NCc2ccc(C#N)cc2Cl)c(=O)c1=O)C(C)(C)C` (stereo not shown) [Example 6, 3-Chloro-4-{[3,4-dioxo-2-(1,2,2-trimethyl-propylamino)-cyclobut-1-enylamino]-methyl}-benzonitrile], which IC50 [1, 3] is on record?
**A.** Its IC50 is 660 ± 200 nM.

**Q.** What about the inhibition at 30 µM ([1]; Rattus norvegicus) of the same compound?
**A.** Its inhibition at 30 µM is 41.2%.

**Q.** And the “% Red (F): percent reduction in the total number of spontaneous contractions” value (shortened to “% Red (F): percent reduction”) ([2]; 3 mg/kg p.o.)?
**A.** The value was -51 ± 6%.

**Q.** What about the “% Red (F): percent reduction” value ([2]; 10 mg/kg p.o.) of the same compound?
**A.** Its value is -71 ± 3%.

**Q.** What does the source list for `Cc1ccc(CNc2c(NC(C)(C)C)c(=O)c2=O)c(C)c1` [Example 8, 3-tert-Butylamino-4-(2,4-dimethyl-benzylamino)-cyclobut-3-ene-1,2-dione]?
**A.** IC50 [1, 3]: 630 ± 150 nM; % Red (F): percent reduction in the total number of spontaneous contractions ([2]; 3 mg/kg p.o.): -38 ± 7%

**Q.** Which results are given for `CCc1cc(C#N)ccc1CNc1c(NC(C)(C)C)c(=O)c1=O` [Example 27, 4-[(2-tert-Butylamino-3,4-dioxo-cyclobut-1-enylamino)-methyl]-3-ethyl-benzonitrile]?
**A.** IC50 [1, 3]: 240 ± 30 nM; % Red (F): percent reduction in the total number of spontaneous contractions ([2]; 10 mg/kg p.o.): -20 ± 22%

**Q.** `C[C@@H](Nc1c(NCc2ccc(C#N)cc2Cl)c(=O)c1=O)C(C)(C)C` [Example 30, (R)-3-Chloro-4-{[3,4-dioxo-2-(1,2,2-trimethyl-propylamino)-cyclobut-1-enylamino]-methyl}-benzonitrile] was tested. Which IC50 [1, 3] did it give?
**A.** The IC50 was 180 ± 30 nM.

**Q.** What about the inhibition at 30 µM ([1]; Rattus norvegicus) of the same compound?
**A.** Its inhibition at 30 µM is 23%.

**Q.** And the “% Red (F): percent reduction” value ([2]; 3 mg/kg p.o.)?
**A.** The value was -68 ± 10%.

**Q.** For `CCC(C)(C)Nc1c(NCc2c(C)cc(C)cc2C)c(=O)c1=O` [Example 81, 3-(1,1-Dimethyl-propylamino)-4-(2,4,6-trimethyl-benzylamino)-cyclobut-3-ene-1,2-dione], which IC50 [1, 3] is on record?
**A.** Its IC50 is 310 ± 80 nM.

**Q.** Which IC50 [1, 3] does the source give for `CC(C)(C)Nc1c(NCc2cc(Cl)ccc2Cl)c(=O)c1=O` [Example 82, 3-tert-Butylamino-4-(2,5-dichloro-benzylamino)-cyclobut-3-ene-1,2-dione] here?
**A.** Its IC50 is 680 ± 240 nM.

**Q.** With `CCC(C)(C)Nc1c(NCc2cc(Cl)ccc2Cl)c(=O)c1=O` [Example 83, 3-(2.5-Dichloro-benzylamino)-4-(1,1-dimethyl-propylamino)-cyclobut-3-ene-1,2-dione] as the compound, how does the IC50 [1, 3] read?
**A.** Its IC50 is 810 ± 320 nM.

**Q.** `Cc1ccc(CNc2c(NC(C)(C)C)c(=O)c2=O)cc1C` [Example 84, 3-tert-Butylamino-4-(3,4-dimethyl-benzylamino)-cyclobut-3-ene-1,2-dione] was tested. Which IC50 [1, 3] did it give?
**A.** Its IC50 is 1600 ± 180 nM.

**Q.** How did the inhibition at 30 µM ([1]; Rattus norvegicus) turn out when `CCC(C)(C)Nc1c(NCc2ccc(C)c(C)c2)c(=O)c1=O` [Example 85, 3-(3A-Dimethyl-benzylamino)-4-(1,1-dimethyl-propylamino)-cyclobut-3-ene-1,2-dione] was run?
**A.** Its inhibition at 30 µM is 35.1 ± 4.4%.

**Q.** How did the IC50 [1, 3] turn out when `Cc1cc(C)cc(CNc2c(NC(C)(C)C)c(=O)c2=O)c1` [Example 86, 3-tert-Butylamino-4-(3,5-dimethyl-benzylamino)-cyclobut-3-ene-1,2-dione] was run?
**A.** The IC50 was 5100 ± 960 nM.

**Q.** With `CCC(C)(C)Nc1c(NCc2cc(C)cc(C)c2)c(=O)c1=O` [Example 87, 3-(3.5-Dimethyl-benzylamino)-4-(1,1-dimethyl-propylamino)-cyclobut-3-ene-1,2-dione] as the compound, how does the inhibition at 30 µM ([1]; Rattus norvegicus) read?
**A.** The inhibition at 30 µM was 13.6 ± 8.4%.

**Q.** `CCC(C)(C)Nc1c(NCc2cc(Cl)cc(Cl)c2)c(=O)c1=O` [Example 88, 3-(3,5-Dichloro-benzylamino)-4-(1,1-dimethyl-propylamino)-cyclobut-3-ene-1,2-dione] was tested. Which IC50 [1, 3] did it give?
**A.** The IC50 was 7300 ± 6000 nM.

**Q.** Which IC50 [1, 3] does the source give for `CC(C)(C)Nc1c(NCc2cc(Cl)cc(Cl)c2)c(=O)c1=O` [Example 89, 3-tert-Butylamino-4-(3.5-dichloro-benzylamino)-cyclobut-3-ene-1,2-dione] here?
**A.** The IC50 was 2300 ± 850 nM.

**Q.** `Cc1ccc(CNc2c(NC(C)(C)C)c(=O)c2=O)cc1Cl` [Example 90, 3-tert-Butylamino-4-(3-chloro-4-methyl-benzylamino)-cyclobut-3-ene-1,2-dione] was tested. Which inhibition at 30 µM ([1]; Rattus norvegicus) did it give?
**A.** The inhibition at 30 µM was 16.6 ± 3.6%.

**Q.** `CCC(C)(C)Nc1c(NCc2ccc(C)c(Cl)c2)c(=O)c1=O` [Example 91, 3-(3-Chloro-4-methyl-benzylamino)-4-(1,1-dimethyl-propylamino)-cyclobut-3-ene-1,2-dione] was tested. Which inhibition at 30 µM ([1]; Rattus norvegicus) did it give?
**A.** The inhibition at 30 µM was 30.7 ± 6.7%.

**Q.** For `CC(C)(CO)Nc1c(NCc2ccc(C#N)cc2Cl)c(=O)c1=O` [Example 93, 3-Chloro-4-{[2-(2-hydroxy-1,1-dimethyl-ethylamino)-3,4-dioxo-cyclobut-1-enylamino]-methyl}-benzonitrile], which IC50 [1, 3] is on record?
**A.** The IC50 was 8100 ± 2000 nM.

**Q.** And the inhibition at 30 µM ([1]; Rattus norvegicus)?
**A.** Its inhibition at 30 µM is 44%.

**Q.** With `CCC(C)(C)Nc1c(NCc2cc(C)ccc2C)c(=O)c1=O` [Example 94, 3-(2,5-Dimethyl-benzylamino)-4-(1,1-dimethyl-propylamino)-cyclobut-3-ene-1,2-dione] as the compound, how does the IC50 [1, 3] read?
**A.** Its IC50 is 1910 ± 840 nM.

**Q.** Which IC50 [1, 3] does the source give for `Cc1ccc(C)c(CNc2c(NC(C)(C)C)c(=O)c2=O)c1` [Example 95, 3-(t-Butylamino)-4-(2.5-dimethyl-benzylamino)-cyclobut-3-ene-1,2-dione] here?
**A.** The IC50 was 1500 ± 300 nM.

**Q.** With `Cc1c(Cl)cccc1CNc1c(NC(C)(C)C)c(=O)c1=O` [Example 96, 3-tert-Butylamino-4-(3-chloro-2-methyl-benzylamino)-cyclobut-3-ene-1,2-dione] as the compound, how does the IC50 [1, 3] read?
**A.** The IC50 was 1300 ± 300 nM.

**Q.** `CCC(C)(C)Nc1c(NCc2cccc(Cl)c2C)c(=O)c1=O` [Example 97, 3-(3-Chloro-2-methyl-benzylamino)-4-(1,1-dimethyl-propylamino)-cyclobut-3-ene-1,2-dione] was tested. Which IC50 [1, 3] did it give?
**A.** Its IC50 is 280 ± 25 nM.

**Q.** With `CC(=O)N(Cc1ccc(C#N)cc1Cl)c1c(NC(C)(C)C)c(=O)c1=O` [Example 98, N-(2-tert-Butylamino-3,4-dioxo-cyclobut-1-enyl)-N-(2-chloro-4-cyano-benzyl)-acetamide] as the compound, how does the IC50 [1, 3] read?
**A.** The IC50 was 20300 ± 790 nM.

**Q.** How did the IC50 [1, 3] turn out when `CCC(C)(C)Nc1c(NCc2cccc(Cl)c2Cl)c(=O)c1=O` [Example 99, 3-(2,3-Dichloro-benzylamino)-4-(1,1-dimethyl-propylamino)-cyclobut-3-ene-1,2-dione] was run?
**A.** The IC50 was 790 ± 470 nM.

**Q.** How did the IC50 [1, 3] turn out when `CC(C)(C)Nc1c(NCc2cccc(Cl)c2Cl)c(=O)c1=O` [Example 100, 3-(t-Butylamino)-4-(2,3-dichloro-benzylamino)-cyclobut-3-ene-1,2-dione] was run?
**A.** The IC50 was 1240 ± 170 nM.

**Q.** `CCCC(=O)N(Cc1ccc(C#N)cc1Cl)c1c(NC(C)(C)C)c(=O)c1=O` [Example 101] was tested. Which IC50 [1, 3] did it give?
**A.** Its IC50 is 2360 ± 1600 nM.
